Results on nine compounds are retold here after PubChem BioAssay (NCI).

Among the test systems are 786-0 renal; CCRF-CEM leukemia; PC-3 prostate; CAKI-1 renal; SF-539 CNS; SN12C renal; SW-620 colon; SNB-19 CNS; HOP-62 NSCLC; RXF 393 renal.
Common to all, as to experiment: growth of human tumour cells (NCI), 48 h

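Cells were grown in 96-well plates and exposed to each compound for 48 hours at five concentrations; endpoints were interpolated linearly between bracketing concentrations, or set to the highest concentration if not reached. Here, GI50 denotes the concentration required for 50% inhibition of growth. TGI denotes the concentration required for complete inhibition of growth.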 Some results are limits rather than exact numbers.

Consider `CCN(CC)N=Nc1c(C(N)=O)n[nH]c1C`, for which the TGI was more than 100 µM in the test on 786-0 renal; 54.5 µM in the test on CCRF-CEM leukemia; more than 100 µM in the test with PC-3 prostate; more than 100 µM in the test with CAKI-1 renal; more than 100 µM with SF-539 CNS; more than 100 µM in the test with SN12C renal. Besides, the TGI in the test with SW-620 colon, with SNB-19 CNS, with HOP-62 NSCLC and with RXF 393 renal was more than 100 µM each time.
For the compound `Cc1nc2sccn2c1-c1csc(Nc2ccccc2Cl)n1`, the GI50 in the test on 786-0 renal is 3.47 µM; with CCRF-CEM leukemia, 3.32 µM; in the test with PC-3 prostate it was 4.09 µM; in the test on CAKI-1 renal, 3.06 µM; in the test with SF-539 CNS it was 3.2 µM; in the test with SN12C renal, 3.58 µM. Besides, the GI50 was 3.22 µM with SW-620 colon, 10.3 µM in the test on SNB-19 CNS, 4.75 µM with HOP-62 NSCLC and 1.9 µM with RXF 393 renal. In addition, the TGI with 786-0 renal is 15.7 µM; with CCRF-CEM leukemia, 53.2 µM; in the test on PC-3 prostate it was 37.5 µM; with CAKI-1 renal, 40.7 µM; in the test with SF-539 CNS, 16.3 µM; in the test with SN12C renal, more than 100 µM. For the same compound, the TGI is 25.9 µM in the test on SW-620 colon, more than 100 µM with SNB-19 CNS, 70.5 µM in the test on HOP-62 NSCLC and 7.09 µM in the test with RXF 393 renal.
For the compound `Cn1cc(C2=C(c3c4n(c5ccccc35)CCCCC4)C(=O)NC2=O)c2ccccc21`, the GI50 in the test with 786-0 renal was 7.76 µM; in the test on CCRF-CEM leukemia, 5.21 µM; in the test with PC-3 prostate, 3.2 µM; in the test on CAKI-1 renal, 2.53 µM; in the test on SF-539 CNS it was 2.86 µM; with SN12C renal, 9.88 µM. Further, the GI50 with SW-620 colon is 2.19 µM; with SNB-19 CNS, more than 18.1 µM; in the test on HOP-62 NSCLC, more than 12.5 µM; in the test on RXF 393 renal, 1.42 µM. For the same compound, the TGI is more than 25 µM in the test with 786-0 renal; more than 22.7 µM in the test on CCRF-CEM leukemia; more than 25 µM with PC-3 prostate; more than 20.2 µM in the test with CAKI-1 renal; 15.5 µM in the test with SF-539 CNS; more than 25 µM in the test on SN12C renal. Further, the TGI in the test with SW-620 colon is more than 25 µM; in the test on SNB-19 CNS, more than 25 µM; with HOP-62 NSCLC it was more than 25 µM; in the test on RXF 393 renal, 7.23 µM.
For `NS(=O)(=O)OC[C@@H]1C[C@@H](n2ccc3c(NC4CCc5ccccc54)ncnc32)C[C@@H]1O` (stereo not given in full), the GI50 in the test with 786-0 renal was 0.671 µM; with CCRF-CEM leukemia it was 0.324 µM; in the test on PC-3 prostate, 17 µM; with CAKI-1 renal it was 0.52 µM; in the test with SF-539 CNS, 1.28 µM; in the test with SN12C renal, 0.614 µM. The GI50 in the test with SW-620 colon is 3.34 µM; with SNB-19 CNS it was 12.5 µM; in the test on HOP-62 NSCLC it was 3.23 µM; in the test with RXF 393 renal, 11.2 µM. Moreover, the TGI in the test with 786-0 renal was 29.7 µM; in the test on CCRF-CEM leukemia, 55.9 µM; in the test on PC-3 prostate it was more than 100 µM; in the test on CAKI-1 renal, more than 100 µM; with SF-539 CNS it was 20.3 µM; in the test on SN12C renal it was more than 100 µM. Besides, the TGI with SW-620 colon is more than 77.6 µM; in the test with SNB-19 CNS, more than 100 µM; with HOP-62 NSCLC, more than 46.9 µM; with RXF 393 renal, 37.1 µM.
For `O=[N+]([O-])c1ccc2c(c1)/C(=N/N=C1c3ccccc3Cc3ccccc31)c1cc([N+](=O)[O-])cc([N+](=O)[O-])c1-2`, the TGI in the test on 786-0 renal came to 3.41 µM; in the test with CCRF-CEM leukemia, 5.55 µM; with PC-3 prostate it was 10.2 µM; with CAKI-1 renal it was 9.36 µM; with SF-539 CNS, 7.21 µM; in the test on SN12C renal, 3.23 µM. Also, the TGI in the test on SW-620 colon was found to be 9.38 µM; in the test with SNB-19 CNS it was 23.3 µM; in the test on HOP-62 NSCLC, 7.01 µM; in the test with RXF 393 renal it was 8.59 µM.
As to `Cc1ccc([N+](=O)[O-])cc1NC1=NCCO1`, the TGI in the test with 786-0 renal, in the test with CCRF-CEM leukemia, in the test on PC-3 prostate, with CAKI-1 renal, with SF-539 CNS and in the test on SN12C renal was more than 100 µM in each case. The TGI in the test on SW-620 colon, in the test on SNB-19 CNS, in the test with HOP-62 NSCLC and with RXF 393 renal was more than 100 µM each time.
Consider `CCC(=O)[C@H](C)[C@@H](OC(=O)[C@H](C)CC)[C@H](C)[C@H]1OC(CC)=C(C)C(=O)[C@@H]1C`, for which the GI50 in the test on 786-0 renal was 25.5 µM; in the test with CCRF-CEM leukemia, 19.7 µM; in the test on PC-3 prostate, 16.8 µM; in the test on CAKI-1 renal it was 21.2 µM; in the test with SF-539 CNS, 18.1 µM; in the test with SN12C renal, 15.4 µM. The GI50 with SW-620 colon is 24.7 µM; in the test on SNB-19 CNS, 42.6 µM; in the test with HOP-62 NSCLC it was 21.2 µM; with RXF 393 renal it was 21.5 µM. The TGI is 84.2 µM with 786-0 renal; 44.8 µM in the test on CCRF-CEM leukemia; more than 100 µM in the test with PC-3 prostate; 52 µM in the test on CAKI-1 renal; 33.1 µM in the test on SF-539 CNS; 29.8 µM in the test with SN12C renal. Further, the TGI with SW-620 colon is 62.5 µM; in the test on SNB-19 CNS, more than 100 µM; with HOP-62 NSCLC, 48.1 µM; in the test on RXF 393 renal, 46.4 µM.
Regarding `CN1CCN(C2=NCCO2)CC1`, the TGI with 786-0 renal, in the test on CCRF-CEM leukemia, in the test on PC-3 prostate, in the test on CAKI-1 renal, with SF-539 CNS and with SN12C renal was more than 100 µM throughout. Moreover, the TGI in the test with SW-620 colon, in the test with SNB-19 CNS, in the test on HOP-62 NSCLC and with RXF 393 renal was more than 100 µM throughout.
Regarding `OC1CSSC1Cn1cnc2c(Nc3ccc(OCc4cccc(F)c4)c(Cl)c3)ncnc21` (stereo not given), the GI50 in the test on 786-0 renal is 5.67 µM; in the test with CCRF-CEM leukemia, 0.656 µM; with PC-3 prostate, 0.749 µM; with CAKI-1 renal it was 2.2 µM; in the test with SF-539 CNS it was 1.89 µM; in the test on SN12C renal it was 4.02 µM. For the same compound, the GI50 is 1.17 µM in the test with SW-620 colon, 2.14 µM in the test with SNB-19 CNS, 0.94 µM in the test with HOP-62 NSCLC and 5.12 µM with RXF 393 renal. Further, the TGI in the test with 786-0 renal turned out to be 11.9 µM; in the test on CCRF-CEM leukemia it was 13.9 µM; with PC-3 prostate it was 1.87 µM; in the test with CAKI-1 renal, 6.85 µM; in the test with SF-539 CNS, 7.67 µM; in the test on SN12C renal it was 9.5 µM. Moreover, the TGI in the test with SW-620 colon came to 4.54 µM; in the test on SNB-19 CNS it was 7.22 µM; with HOP-62 NSCLC it was 2.79 µM; in the test on RXF 393 renal it was 10.7 µM.
